# Entries after “also recorded” stand apart in the source; their conditions may differ. Like-named read-outs stand apart in the source and are kept apart here.
# T1: type 2 5α-reductase (Homo sapiens, UniProt P31213)
# T1 construct: made in house
# T1 sequence (P31213 1-254): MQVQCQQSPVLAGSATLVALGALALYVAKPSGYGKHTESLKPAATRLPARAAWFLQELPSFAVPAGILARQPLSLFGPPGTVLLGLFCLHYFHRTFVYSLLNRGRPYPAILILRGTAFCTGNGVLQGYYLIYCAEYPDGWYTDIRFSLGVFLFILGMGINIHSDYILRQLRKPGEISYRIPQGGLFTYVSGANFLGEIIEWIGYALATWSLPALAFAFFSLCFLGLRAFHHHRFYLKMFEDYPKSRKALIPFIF
# B1: type 2 5α-reductase (Homo sapiens) (protein)
# chain: T1 sequence (P31213 1-254)
# Key:
# [1] = target: T1, type 2 5α-reductase; experiment: Progress curves of DHT formation, slow-binding inhibition of baculovirus-expressed type 2 5α-reductase; type: biochemical
# Procedure: Ethanol is included at 1% final concentration as the vehicle for introduction of inhibitors. The rate of production of [^3 H]dihydrotestosterone is approximately constant for up to 2 hours or 10% consumption of substrate. A unit of enzyme activity was defined as 1 pmol product/min, and is equal to 444 fmol enzyme under these conditions.
# After quenching the reactions with an equal volume, or more, of water containing 1% trifluoroacetic acid, the [^3 H]dihydrotestosterone is isolated by direct injection onto a reverse phase C-18 column (Vydac, 4.6×250 mm, 300 Å, 5 micron), which is run in an isocratic system of 40% water (containing 0.1% trifluoroacetic acid) and 60% methanol at 1 mL/min. When tissue extracts are the source of enzyme, the quenched reactions are clarified by centrifugation at 10,000×g before analysis. Retention times are ~13 min for testosterone and ~20 min for dihydrotestosterone. The effluent containing the [^3 H]dihydrotestosterone peak (6 mL) is collected in a liquid scintillation vial and counted with AQUASOL 2 (14 mL, New England Nuclear) with an efficiency of 0.309. The assay is completely automated using a SUN SPARKSTATION 2 computer interfaced to a ZYMARK robot and ancillary equipment.
# The native human enzyme was from prostate (type 2) or scalp (type 1) tissue, and the recombinant human enzymes were produced by the baculovirus expression system of Andersson, et al. (Chan, H. K., Geissler, W. M., Andersson, S., Sex Hormones and Antihormones in Endocrine Dependent Pathology: Basic and Clinical Aspects, M. Motta and M. Serio, eds., Elsevier Science 1994). […] Enzyme concentrations were determined by titration with finasteride, or [^3 H]finasteride, or from catalytic activity using kcat and Km values.
# Alternatively, fractions may be collected and the samples counted on a scintillation counter. […] The time courses were fit to an integrated first-order rate equation (Equation 1), where A is product concentration, vo is the initial velocity, vs is the infinite-time velocity, and kobs is the first-order rate constant for progression of the enzyme between the two equilibrium states. […] (Ki=koff /kon).
# A=vs t+(vo -vs)(1-e-^k obs^t)/kobs +Ao Equation
# [2] = tested on: human prostate (type 2) isozyme; conditions: cited from earlier work
# [3] = tested on: human prostate (type 2) 5α-reductase; conditions: result in words, cited from earlier work
# [4] = tested on: dihydrotestosterone levels; conditions: circulating finasteride concentrations comparable to Ki = 26 nM; result in words; cited from earlier work
# [5] = tested on: human skin (type 1) isozyme; conditions: cited from earlier work
# [6] = tested on: type 1 5α-reductase; experiment: Kinetic constants of type 1 5α-reductase; type: biochemical, human
# Source text: (§1) Ethanol is included at 1% final concentration as the vehicle for introduction of inhibitors. […] A unit of enzyme activity was defined as 1 pmol product/min, and is equal to 444 fmol enzyme under these conditions.
# (§2) The molecular weight was taken to be about 30,000 in estimating enzyme purity.
# [7] = substrate: C[C@]12CC[C@H]3[C@@H](CCC4=CC(=O)CC[C@@]43C)[C@@H]1CC[C@@H]2O; experiment: purified protein, by the assay type; conditions: other: baculovirus-expressed type 2 enzyme, pH 7.2, 37° C.
# Source text: as §1, §2
molecule,measurement,setting,value
"CCN(CC)C(=O)[C@H]1CC[C@H]2[C@@H]3CC[C@H]4OC(=O)C=C[C@]4(C)[C@H]3CC[C@]12C [L-682,299, 17β-(N-diethyl)carbamoyl-4-oxa-5α-androst-1-en-3-one]",Ki,[1],< 100 pM
same,velocity at infinite-time (vs),"[1]; 20 nM inhibitor, pH 7.2, 37° C.",essentially zero
same,inhibition over time,"[1]; 20 nM inhibitor, pH 7.2, 37° C., result in words",the inhibition developed slowly with time and resulted in total inhibition of the enzyme
same,kon at 0.02 µM,"[1]; pH 7.2, read-out: second-order rate constant for binding to the type 2 isozyme",56000 M⁻¹ s⁻¹
"CC(C)(C)NC(=O)[C@H]1CC[C@H]2[C@@H]3CC[C@H]4NC(=O)C=C[C@]4(C)[C@H]3CC[C@]12C [Finasteride, 17β-(N-tert-butylcarbamoyl)-3-oxo-4-aza-5α-androst-1-ene-3-one]",rate constant for binding to the human prostate isozyme,[2]; Faller et al. 1993,270000 M⁻¹ s⁻¹
same,binding behavior / reversibility,"[2]; human prostate (type 2) isozyme, result in words",slow-binding inhibitors; also recorded: essentially irreversible enzyme-inhibitor complex
same,Ki,"[2]; printed as Ki <<1 nM, essentially irreversible complex, Faller et al. 1993",< 1000 pM
same,inhibition of human prostate (type 2) enzyme,[3],potent inhibitor of the human prostate enzyme
same,inhibition of human prostate (type 2) enzyme,[3]; listed as finasteride,potently inhibited by finasteride
same,reduction of dihydrotestosterone levels,[4],reduced levels of dihydrotestosterone to values approaching those found in individuals genetically deficient in the prostate isozyme
same,inhibition of human skin (type 1) isozyme,"[5]; result in words, listed as finasteride",relatively insensitive to finasteride; also recorded: not a significant inhibitor of human skin (type 1) isozyme at doses employed in the treatment of BPH
same,second-order rate constant for formation of the complex,"[5]; type 1, Tian et al. 1994",4000 M⁻¹ s⁻¹
C[C@]12CC[C@H]3[C@@H](CCC4=CC(=O)CC[C@@]43C)[C@@H]1CC[C@@H]2O [testosterone],Km,[6],7 µM
same,kcat for the type 1 enzyme,[6],1.4 s⁻¹
B1,Km,[7],0.0246 ± 0.0007 µM
same,kcat,[7],0.075 ± 0.006 s⁻¹
same,kcat/Km,[7],2.99±0.32×10^6 M^-1 s^-1
